Legend:
[1] = target: hemolysin alpha from Staphylococcus aureus (Staphylococcus aureus, UniProt P09616); assay: cell-based
[2] = target: S. aureus Alpha hemolysin (Staphylococcus aureus, UniProt P09616); assay: cell-based; details: A549-LDH Assay activity
S. aureus Alpha hemolysin, sequence (P09616 27-319 limits assumed): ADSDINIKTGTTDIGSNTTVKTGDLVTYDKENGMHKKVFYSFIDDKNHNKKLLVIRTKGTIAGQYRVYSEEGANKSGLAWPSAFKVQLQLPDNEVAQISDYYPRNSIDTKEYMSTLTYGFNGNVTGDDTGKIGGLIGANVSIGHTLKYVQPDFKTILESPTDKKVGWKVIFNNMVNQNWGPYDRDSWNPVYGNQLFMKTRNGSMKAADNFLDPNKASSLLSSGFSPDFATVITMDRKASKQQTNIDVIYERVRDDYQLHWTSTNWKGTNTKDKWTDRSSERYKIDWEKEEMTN

hemolysin alpha from Staphylococcus aureus, sequence (P09616 27-319 limits assumed): as above

SMILES	IC50 [1] [nM]	EC50 [2] [nM]	EC50 [1] [nM]
O=c1[nH]c2cc(Cl)c(S(=O)(=O)Nc3ccc(-c4cccc(N5CCCC5)c4)c(Cl)c3)cc2[nH]c1=O [Compound 21, 7-chloro-N-(2-chloro-3′-(pyrrolidin-1-yl)-[1,1′-biphenyl]-4-yl)-2,3-dioxo-1,2,3,4-tetrahydroquinoxaline-6-sulfonamide]	< 30	100 to 1000	
Cc1cc2[nH]c(=O)c(=O)[nH]c2cc1S(=O)(=O)Nc1ccc(-c2ccc3c(c2)CCNC3=O)c(Cl)c1 [Compound 334, N-[3-chloro-4-(1-oxo-3,4-dihydro-2H-isoquinolin-6-yl)phenyl]-7-methyl-2,3-dioxo-1,4-dihydroquinoxaline-6-sulfonamide]		1000 to 6000	100 to 1000
Cc1cc2[nH]c(=O)c(=O)[nH]c2cc1S(=O)(=O)Nc1cc(Cl)c(-c2cccc(Cl)c2)cn1 [Compound 210, N-(4-chloro-5-(3-chlorophenyl)pyridin-2-yl)-7-methyl-2,3-dioxo-1,2,3,4-tetrahydroquinoxaline-6-sulfonamide]		100 to 1000	30 to 100
O=c1[nH]c2cc(F)c(S(=O)(=O)Nc3ccc(-c4cccc(Cl)c4)c(Cl)c3)cc2[nH]c1=O [Compound 65, N-(2,3′-dichloro-[1,1′-biphenyl]-4-yl)-7-fluoro-2,3-dioxo-1,2,3,4-tetrahydroquinoxaline-6-sulfonamide]	30 to 100	1000 to 6000	
Cc1cc2[nH]c(=O)c(=O)[nH]c2cc1S(=O)(=O)Nc1ccc(-c2cccc(OC(F)(F)F)c2)c(Cl)c1 [Compound 339, N-[3-chloro-4-[3-(trifluoromethoxy)phenyl]phenyl]-7-methyl-2,3-dioxo-1,4-dihydroquinoxaline-6-sulfonamide]		100 to 1000	30 to 100
O=c1[nH]c2cc(F)c(S(=O)(=O)Nc3ccc(C4CC4)cc3)cc2[nH]c1=O [Compound 68, N-(4-cyclopropylphenyl)-7-fluoro-2,3-dioxo-1,2,3,4-tetrahydroquinoxaline-6-sulfonamide]	30 to 100	100 to 1000	
Cc1cc2[nH]c(=O)c(=O)[nH]c2cc1S(=O)(=O)Nc1ccc(C2COC2)cc1 [Compound 384, 7-methyl-N-[4-(oxetan-3-yl)phenyl]-2,3-dioxo-1,4-dihydroquinoxaline-6-sulfonamide]		100 to 1000	1000 to 3500
Cc1cc2[nH]c(=O)c(=O)[nH]c2cc1S(=O)(=O)Nc1ccc(-c2ccc3c(c2)OCCN3C)c(Cl)c1 [Compound 329, N-[3-chloro-4-(4-methyl-2,3-dihydro-1,4-benzoxazin-7-yl)phenyl]-7-methyl-2,3-dioxo-1,4-dihydroquinoxaline-6-sulfonamide]		1000 to 6000	100 to 1000
Cc1nc2cc(-c3ncc(NS(=O)(=O)c4cc5[nH]c(=O)c(=O)[nH]c5cc4C)cc3Cl)ccc2o1 [Compound 375, N-[5-chloro-6-(2-methyl-1,3-benzoxazol-5-yl)-3-pyridyl]-7-methyl-2,3-dioxo-1,4-dihydroquinoxaline-6-sulfonamide]		30 to 100	30 to 100
[2H]C([2H])([2H])Oc1ccc(-c2ccc(NS(=O)(=O)c3cc4[nH]c(=O)c(=O)[nH]c4cc3C)cc2Cl)cc1 [Compound 267, N-[3-chloro-4-[4-(trideuteriomethoxy)phenyl]phenyl]-7-methyl-2,3-dioxo-1,4-dihydroquinoxaline-6-sulfonamide]		30 to 100	< 30
Cc1cc2[nH]c(=O)c(=O)[nH]c2cc1S(=O)(=O)Nc1ccc(-c2cccc(S(C)(=O)=O)c2)c(Cl)c1 [Compound 313, N-[3-chloro-4-(3-methylsulfonylphenyl)phenyl]-7-methyl-2,3-dioxo-1,4-dihydroquinoxaline-6-sulfonamide]		100 to 1000	100 to 1000
Cc1cc2[nH]c(=O)c(=O)[nH]c2cc1S(=O)(=O)Nc1ccc(-n2ccnn2)c(Cl)c1 [Compound 264, N-[3-chloro-4-(triazol-1-yl)phenyl]-7-methyl-2,3-dioxo-1,4-dihydroquinoxaline-6-sulfonamide]		100 to 1000	100 to 1000
COc1ccc(-c2ccc(NS(=O)(=O)c3cc4[nH]c(=O)c(=O)[nH]c4cc3C)cc2Cl)cc1F [Compound 320, N-[3-chloro-4-(3-fluoro-4-methoxy-phenyl)phenyl]-7-methyl-2,3-dioxo-1,4-dihydroquinoxaline-6-sulfonamide]		< 30	< 30
Cc1cc2[nH]c(=O)c(=O)[nH]c2cc1S(=O)(=O)Nc1ccc(-c2ccncc2)cc1 [Compound 127, 7-methyl-2,3-dioxo-N-(4-(pyridin-4-yl)phenyl)-1,2,3,4-tetrahydroquinoxaline-6-sulfonamide]	100 to 1000	100 to 1000	
CC(=O)c1cccc(-c2ccc(NS(=O)(=O)c3cc4[nH]c(=O)c(=O)[nH]c4cc3C)cc2Cl)c1 [Compound 249, N-[4-(3-acetylphenyl)-3-chloro-phenyl]-7-methyl-2,3-dioxo-1,4-dihydroquinoxaline-6-sulfonamide]		100 to 1000	< 30
CC(C)=Cc1ccc(NS(=O)(=O)c2cc3[nH]c(=O)c(=O)[nH]c3cc2C)cc1Cl [Compound 296, N-[3-chloro-4-(2-methylprop-1-enyl)phenyl]-7-methyl-2,3-dioxo-1,4-dihydroquinoxaline-6-sulfonamide]		30 to 100	30 to 100

SMILES	IC50 [1] [nM]	EC50 [2] [nM]	EC50 [1] [nM]
O=c1[nH]c2cc(Cl)c(S(=O)(=O)Nc3ccc(-c4cccc(Cl)c4)c(Cl)c3)cc2[nH]c1=O [Compound 35, 7-chloro-N-(2,3′-dichloro-[1,1′-biphenyl]-4-yl)-2,3-dioxo-1,2,3,4-tetrahydroquinoxaline-6-sulfonamide]	< 30	100 to 1000	
Cc1cc2[nH]c(=O)c(=O)[nH]c2cc1S(=O)(=O)Nc1ccc(-c2ccc3cc[nH]c3c2)c(Cl)c1 [Compound 271, N-[3-chloro-4-(1H-indol-6-yl)phenyl]-7-methyl-2,3-dioxo-1,4-dihydroquinoxaline-6-sulfonamide]		< 30	< 30
Cc1cc2[nH]c(=O)c(=O)[nH]c2cc1S(=O)(=O)Nc1ccc(-c2ccc3cccnc3c2)c(Cl)c1 [Compound 351, N-[3-chloro-4-(7-quinolyl)phenyl]-7-methyl-2,3-dioxo-1,4-dihydroquinoxaline-6-sulfonamide]		100 to 1000	< 30
Cc1cc2[nH]c(=O)c(=O)[nH]c2cc1S(=O)(=O)Nc1ccc(C2CCOCC2)cc1 [Compound 304, 7-methyl-2,3-dioxo-N-(4-tetrahydropyran-4-ylphenyl)-1,4-dihydroquinoxaline-6-sulfonamide]		100 to 1000	1000 to 3500
COc1cc(NS(=O)(=O)c2cc3[nH]c(=O)c(=O)[nH]c3cc2C)ccc1-c1ccccc1C [Compound 124, N-(2-methoxy-2′-methyl-[1,1′-biphenyl]-4-yl)-7-methyl-2,3-dioxo-1,2,3,4-tetrahydroquinoxaline-6-sulfonamide]	100 to 1000	100 to 1000	
Cc1cc2[nH]c(=O)c(=O)[nH]c2cc1S(=O)(=O)Nc1cc(C)c(-c2ccco2)c(C)c1 [Compound 16, N-(4-(furan-2-yl)-3,5-dimethylphenyl)-7-methyl-2,3-dioxo-1,2,3,4-tetrahydroquinoxaline-6-sulfonamide]	< 30	< 30	
Cc1cn2ccc(-c3ccc(NS(=O)(=O)c4cc5[nH]c(=O)c(=O)[nH]c5cc4C)cc3Cl)cc2n1 [Compound 338, N-[3-chloro-4-(2-methylimidazo[1,2-a]pyridin-7-yl)phenyl]-7-methyl-2,3-dioxo-1,4-dihydroquinoxaline-6-sulfonamide]		30 to 100	< 30
C#Cc1cc(NS(=O)(=O)c2cc3[nH]c(=O)c(=O)[nH]c3cc2C)ccc1-c1ccccc1 [Compound 252, N-(3-ethynyl-4-phenyl-phenyl)-7-methyl-2,3-dioxo-1,4-dihydroquinoxaline-6-sulfonamide]		30 to 100	< 30
Cc1cc2[nH]c(=O)c(=O)[nH]c2cc1S(=O)(=O)Nc1ccc(-c2sccc2C)c(Cl)c1 [Compound 62, N-(3-chloro-4-(3-methylthiophen-2-yl)phenyl)-7-methyl-2,3-dioxo-1,2,3,4-tetrahydroquinoxaline-6-sulfonamide]	30 to 100	100 to 1000	
COc1cc2[nH]c(=O)c(=O)[nH]c2cc1S(=O)(=O)Nc1ccc(Br)cc1 [Compound 383, N-(4-bromophenyl)-7-methoxy-2,3-dioxo-1,4-dihydroquinoxaline-6-sulfonamide]		100 to 1000	1000 to 3500
Cc1cc2[nH]c(=O)c(=O)[nH]c2cc1S(=O)(=O)Nc1ccc(-c2ccc3c(c2)NC(=O)CO3)c(C(F)(F)F)c1 [Compound 367, 7-methyl-2,3-dioxo-N-[4-(3-oxo-4H-1,4-benzoxazin-6-yl)-3-(trifluoromethyl)phenyl]-1,4-dihydroquinoxaline-6-sulfonamide]		30 to 100	< 30
Cc1cc2[nH]c(=O)c(=O)[nH]c2cc1S(=O)(=O)Nc1ccc(-c2c(F)cccc2F)c(Cl)c1 [Compound 308, N-[3-chloro-4-(2,6-difluorophenyl)phenyl]-7-methyl-2,3-dioxo-1,4-dihydroquinoxaline-6-sulfonamide]		30 to 100	30 to 100
O=c1[nH]c2cc(Cl)c(S(=O)(=O)Nc3ccc(-c4ccccc4)cc3)cc2[nH]c1=O [Compound 98, N-([1,1′-biphenyl]-4-yl)-7-chloro-2,3-dioxo-1,2,3,4-tetrahydroquinoxaline-6-sulfonamide]	100 to 1000	100 to 1000	
COc1cc2[nH]c(=O)c(=O)[nH]c2cc1S(=O)(=O)Nc1ccc(Cl)cc1 [Compound 380, N-(4-chlorophenyl)-7-methoxy-2,3-dioxo-1,4-dihydroquinoxaline-6-sulfonamide]		100 to 1000	1000 to 3500
COc1ccccc1-c1c(C)cc(NS(=O)(=O)c2cc3[nH]c(=O)c(=O)[nH]c3cc2C)cc1C [Compound 102, N-(2′-methoxy-2,6-dimethyl-[1,1′-biphenyl]-4-yl)-7-methyl-2,3-dioxo-1,2,3,4-tetrahydroquinoxaline-6-sulfonamide]	100 to 1000	30 to 100	

From patent US20240376084A1, “INHIBITORS OF ALPHA-HEMOLYSIN OF STAPHYLOCOCCUS AUREUS” (Helmholtz-Zentrum Fur Infektionsforschung GmbH, priority 2021, published 2024)
